{"source": "patent US11738031B2", "about": "“Compositions and methods for preventing or treating muscle conditions” (The Board of Trustees of the Leland Stanford Junior …, priority 2017, dated 2023)", "key": {"[1]": {"system": "muscle stem cells (MuSCs)", "assay": "MuSC proliferation in culture, cell number count (hemocytometer)", "format": "cell-based, mouse", "conditions": "ONO-AE3-208 1 μM with PGE2 10 ng/ml, 24 hr treatment", "protocol": "(§1) Muscle stem cell culture, treatment and lentiviral infection: Following isolation, we resuspended MuSCs in myogenic cell culture medium containing DMEM/F10 (50:50), 15% FBS, 2.5 ng ml^−1 fibroblast growth factor-2 (FGF-2 also known as bFGF) and 1% penicillin-streptomycin. We seeded MuSC suspensions at a density of 500 cells per cm^2 surface area. We maintained cell cultures at 37° C. in 5% CO2 and changed medium daily. For PGE2, 15-PGDH inhibitor and EP4 receptor antagonist treatment studies, we added 1-200 ng/ml Prostaglandin E2 (Cayman Chemical) (unless specified in the figure legends, 10 ng/ml was the standard concentration used), and/or 1 μM EP4 antagonist (ONO-AE3-208, Cayman Chemical), or 1 μM 15-PGDH inhibitor (SW033291, Cayman Chemical) to the MuSCs cultured on collagen coated dishes for the first 24 h. The cells were then trypsinized and cells reseeded onto hydrogels for an additional 6 days of culture. All treatments were compared to their solvent (DMSO) vehicle control. For stripped serum assays, we resuspended isolated MuSCs in medium containing DMEM/F10 (50:50), 15% charcoal stripped FBS (Gibco, cat #12676011), 2.5 ng ml^−1 bFGF and 1% penicillin-streptomycin. […]\nProliferation assays: To assay proliferation, we used three different assays (hemocytometer, VisionBlue, and EdU). […] For hemocytometer cell number count, we collected cells at indicated timepoints by incubation with 0.5% trypsin in PBS for 5 min at 37° C. and quantified them using a hemocytometer at least 3 times. Additionally, we used the VisionBlue Quick Cell Viability Fluorometric Assay Kit (BioVision, catalog #K303) as a readout for cell growth in culture. Briefly, we incubated MuSCs with 10% VisionBlue in culture medium for 3 h, and measured fluorescence intensity on a fluorescence plate reader (Infinite M1000 PRO, Tecan) at Ex=530-570 nm, Em=590-620 nm. […] We quantified EdU positive cells using the MetaMorph Image Analysis software (Molecular Devices). Data analyses were blinded, where researchers performing cell scoring were unaware of the treatment condition given to sample groups analyzed. […]"}, "aged MuSCs": {"system": "aged MuSCs", "assay": "Aged MuSC proliferation in culture", "format": "cell-based, mouse", "conditions": "PGE2 10 ng/ml or SW033291 1 μM, 24 hr, assayed at day 7", "protocol": "as §1\nProliferation assays: To assay proliferation, we used three different assays (hemocytometer, VisionBlue, and EdU). […] For hemocytometer cell number count, we collected cells at indicated timepoints by incubation with 0.5% trypsin in PBS for 5 min at 37° C. and quantified them using a hemocytometer at least 3 times. Additionally, we used the VisionBlue Quick Cell Viability Fluorometric Assay Kit (BioVision, catalog #K303) as a readout for cell growth in culture. Briefly, we incubated MuSCs with 10% VisionBlue in culture medium for 3 h, and measured fluorescence intensity on a fluorescence plate reader (Infinite M1000 PRO, Tecan) at Ex=530-570 nm, Em=590-620 nm. […] We quantified EdU positive cells using the MetaMorph Image Analysis software (Molecular Devices). Data analyses were blinded, where researchers performing cell scoring were unaware of the treatment condition given to sample groups analyzed."}, "[2]": {"system": "endogenous MuSCs in TA muscle", "assay": "Endogenous MuSC BLI in Pax7CreERT2;Rosa26-LSL-Luc mice after cardiotoxin injury", "format": "in vivo, mouse", "conditions": "single indomethacin injection three days post-cardiotoxin injury", "protocol": "Bioluminescence imaging: We performed bioluminescence imaging (BLI) using a Xenogen-100 system, as previously described^1,5,6. Briefly, we anesthetized mice using isofluorane inhalation and administered 120 μL D-luciferin (0.1 mmol kg^−1, reconstituted in PBS; Caliper LifeSciences) by intraperitoneal injection. We acquired BLI using a 60 s exposure at F-stop=1.0 at 5 minutes after luciferin injection. Digital images were recorded and analyzed using Living Image software (Caliper LifeSciences). We analyzed images with a consistent region-of-interest (ROI) placed over each hindlimb to calculate a bioluminescence signal. We calculated a bioluminescence signal in radiance (p s^−1 cm^−2 sr^−1) value of 10^4 to define an engraftment threshold. This radiance threshold of 10^4 is approximately equivalent to the total flux threshold in p/s reported previously. This BLI threshold corresponds to the histological detection of one or more GFP+ myofibers^1,5,6. We performed BLI imaging every week after transplantation. […]\nWe performed bioluminescence imaging (BLI) using a Xenogen-100 system, as previously described (24, 26, 27, 30). […] Digital images were recorded and analyzed using Living Image software (Caliper LifeSciences). We analyzed images with a consistent region-of-interest (ROI) placed over each hindlimb to calculate a bioluminescence signal. We calculated a bioluminescence signal in radiance (p s^−1 cm^−2 sr^−1) value of 10^4 to define an engraftment threshold. […]\nBioluminescent Imaging: For bioluminescence imaging (BLI), we anesthetized mice using isofluorane inhalation and administered 120 μL D-luciferin (0.1 mmol kg^−1, reconstituted in PBS; Caliper LifeSciences) by intraperitoneal injection. […] Digital images were recorded and analyzed using Living Image software (Caliper LifeSciences). We analyzed images with a consistent region-of-interest (ROI) placed over each hindlimb to calculate a bioluminescence signal. We calculated a bioluminescence signal in radiance (p s^−1 cm^−2 sr^−1) value of 10^4 to define an engraftment threshold. […]"}, "[3]": {"system": "PGE2 levels of conditioned medium from isolated fibers", "assay": "PGE2 ELISA of conditioned medium from isolated fibers", "format": "cell-based, mouse", "conditions": "indomethacin 1 μM, 24 hours", "protocol": "For conditioned medium assays, muscle fibers from the extensor digitorum longus (EDL) were isolated as previously described (53). Fibers were cultured in stripped serum medium in the presence or absence of indomethacin (1 μM, Sigma) for 24 hours. Conditioned medium was collected and measured using the PGE2 ELISA Kit (R&D Systems, catalog #KGE004B) and expressed relative to the collected volume (ml). Each sample was assayed in triplicate and in two independent experiments. […]"}, "TA muscle": {"system": "TA muscle", "assay": "In vivo muscle force at day 14 post-injury (TA)", "set-up": "species or system mouse", "protocol": "We used an injury model entailing intramuscular injection of 10 μl of notexin (10 μg ml^−1; Latoxan, catalog #L8104) or cardiotoxin (10 μM; Latoxan, catalog #L8102) into the Tibialis anterior (TA) muscle. For cryoinjury, an incision was made in the skin overlying the TA muscle and a copper probe, chilled in liquid nitrogen, was applied to the TA muscle for three 10 s intervals, allowing the muscle to thaw between each application of the cryoprobe. When indicated, 48 hr after injury either 16,16-Dimethyl Prostaglandin E2 (dmPGE2) (13 nmol, Tocris, catalog #4027), Indomethacin (35 μg, Sigma, catalog #17378) or vehicle control (PBS) was injected into the TA muscle. The contralateral TA was used as an internal control, except for the force measurement experiments where each mouse had both legs injured with the same condition and independent mice were used for each condition.\nMice were injured as described in the Muscle injury section. […] Data were collected with a PCI-6251 acquisition card (National Instruments) and analyzed in Matlab. We calculated specific force values by normalizing the force measurements by the muscle physiological cross-sectional areas (PCSAs), which were similar between groups. PCSA (measured in mm^2) was calculated according to the following equation (55): PCSA (mm^2)=[mass (g)×Cos θ]÷[ρ (g/mm^3)×fiber length (mm)], […]"}}, "note": "“Also recorded” adds a separate entry of the source."}
{"smiles": "CC(C(=O)Nc1cc(C#N)ccc1CCCC(=O)O)c1ccc(F)c2ccccc12", "note": "(stereo not drawn) [ONO-AE3-208]", "values": [{"measurement": "proliferation induced by PGE2 in the presence of EP4 antagonist", "setting": "[1]", "value": "blunted"}]}
{"smiles": "CCCC[S+]([O-])c1sc2nc(-c3cccs3)cc(-c3ccccc3)c2c1N", "note": "(stereo not drawn) [SW033291]", "values": [{"measurement": "aged MuSC proliferation and Pax7 expression after 1-day pulse", "setting": "aged MuSCs", "value": "characteristic increase in proliferation and maintenance of Pax7 expression"}]}
{"smiles": "COc1ccc2c(c1)c(CC(=O)O)c(C)n2C(=O)c1ccc(Cl)cc1", "note": "[indomethacin]", "values": [{"measurement": "luciferase activity (BLI) of endogenous MuSCs after indomethacin", "setting": "[2]", "value": "significant decrease in luciferase activity; also recorded: decline in BLI relative to controls"}, {"measurement": "PGE2 synthesis by isolated myofibers", "setting": "[3]", "value": "markedly reduced"}, {"measurement": "reduction in twitch force compared to controls", "setting": "TA muscle; NSAID (indomethacin) treatment, day 14 post-cardiotoxin", "value": "33±7", "unit": "%"}, {"measurement": "Twitch force vs control group", "setting": "TA muscle; indomethacin into cardiotoxin-injured muscles, day 14 post-injury", "value": "significant loss in Twitch force"}]}
